{"source": "patent US8741659B2", "about": "“Composition for measuring the binding affinity between nucleic acid and test substance, and use thereof” (Osaka University, priority 2007, dated 2014)", "tested_on": "RRE", "assay": "Displacement assay using Rev peptide after formation of complex with RRE", "assay_type": "binding, HIV-1", "settings": "compound and RRE each 2 μM, Rev protein 0-4.0 μM", "method": "In this Example, a binding affinity between a test substance and RRE was evaluated, with use of the compounds, X2S, X2S(3), X2S(4), X2S(5), X2S(2-Me), and 3,6-X2S(2). As the test substance, Rev protein used in Example 5 was used.\nFirstly, in the same manner as in Example 3, the above compounds and RREs were respectively dissolved in cacodylate buffer solutions (sodium cacodylate: 10 mM pH 7.0, NaCl: 100 mM) each at 2 μM, so that an X2S-RRE solution, an X2S(3)-RRE solution, an X2S(4)-RRE solution, an X2S(5)-RRE solution, an X2S(2-Me)-RRE solution, and a 3,6-X2S(2)-RRE solution were prepared.\nTo each of these solutions, Rev protein was added in stages at 0 μM, 0.4 μM, 0.8 μM, 1.2 μM, 1.6 μM, 2.0 μM, 2.4 μM, 2.8 μM, 3.2 μM, 3.6 μM, and 4.0 μM. Further, a fluorescence intensity was measured at each concentration. The fluorescence intensity was measured in the same manner as that described in Example 14.\nEach of FIGS. 43 to 48 is a view illustrating a result of the measurement of a binding affinity between Rev protein and RRE. […] In each of FIGS. 43 to 48, the horizontal axis represents the fluorescence wavelength, whereas the vertical axis represents the fluorescence intensity. […] Further, along the direction of the arrow extending from the curved line at the bottom, the curved lines, showing the respective results, are arranged in order of increasing amount of the test substance which was added.\nFIG. 49 is a view illustrating a relationship between an amount of Rev added and a fluorescence intensity, in connection with X2S, X2S(3), X2S(4), X2S(5), X2S(2-Me), and 3,6-X2S(2). Further, FIG. 49 is also a view plotting, based on the results illustrated in FIGS. 43 to 48, the fluorescence intensities detected at the fluorescence wavelength at which the respective fluorescence peaks were observed. FIG. 50 is a graph illustrating a relationship between an amount of Rev added and a recovery rate of the fluorescence intensity. In FIG. 49, the vertical axis represents the fluorescence intensity. In FIG. 50, the vertical axis represents the recovery rate of the fluorescence intensity. In each of FIGS. 49 and 50, the horizontal axis represents the amount of Rev added. That is, each of FIGS. 49 and 50 reflects amounts of the above compounds liberated from RREs due to the addition of Rev.\nThe recovery rate of the fluorescence intensity was obtained by dividing (i) a maximum value of the fluorescence intensity detected at each Rev concentration ranging from 0 μM to 4.0 μM in each of FIGS. 43 to 48 by (ii) a maximum value of the fluorescence intensity of the curved line at the top in each of FIGS. 43 to 48.\nIn this Example, 1-Pyrenemethanamide, hydrochloride was used to measure a binding affinity between a test substance and RRE. As the test substance, Rev protein used in Example 5 was used.\nFirstly, in the same manner as in Example 3, 1-Pyrenemethanamide, hydrochloride and RRE were dissolved in a cacodylate buffer solution (sodium cacodylate: 10 mM, pH 7.0; NaCl: 100 mM) each at 2 μM, so that a 1-Pyrenemethanamide, hydrochloride-RRE solution was prepared.\nTo the solution, Rev protein was added in steps at 0 μM, 0.4 μM, 0.8 μM, 1.2 μM, 1.6 μM, 2.0 μM, 2.4 μM, 2.8 μM, 3.2 μM, 3.6 μM, and 4.0 μM. Further, the solution at each concentration was irradiated with light having an excitation wavelength of 340 nm, and a fluorescence intensity was measured. A device used for measuring a fluorescence intensity and a variation in a slit width were the same as those in Example 13.\nFIG. 55 is a view illustrating a result of the measurement of a binding affinity between Rev protein and RRE. The horizontal axis represents the fluorescence wavelength, whereas the vertical axis represents the fluorescence intensity. […] Further, along a bottom-to-top direction, the curved lines, showing the respective results, are arranged in order of increasing amount of the test substance which was added. […]", "data": [{"smiles": "NCCOc1ccc2oc3ccc(OCCN)cc3c(=O)c2c1", "note": "[X2S, 2,7-bis(2-aminoethoxy)xanthen-9-one]", "values": [{"measurement": "fluorescence intensity in displacement assay", "result": "high"}, {"measurement": "recovery rate of the fluorescence intensity", "result": "good"}]}]}
